Test results taken from the NIST ThermoML archive (doi:10.1016/j.fluid.2014.07.010).
Numbers after ± are expanded uncertainties.

Details: Liquid, Ebulliometric method (Recirculating still)

| SMILES | vapor or sublimation pressure (407.15 K) | vapor or sublimation pressure (398.57 K) |
| --- | --- | --- |
| CCc1cccs1 [2-ethylthiophene] | 101.33 ± 0.46 kPa |  |
| CCCCCCCC [octane] |  | 101.33 ± 0.46 kPa |
